Measured values taken from PMC5309217, “Divergent Soybean Calmodulins Respond Similarly to Calcium Transients: Insight into Differential Target Regulation” (Frontiers in Plant Science, 2017).

Experiments:
[1] = biological target: T1, CaM binding domain of Arabidopsis thaliana NADK2 (Arabidopsis thaliana, UniProt Q9C5W3); experiment: NADK peptide affinity for CaMs (intrinsic Trp of the peptide)
T1 construct: purchased Ohio Peptide LLC (Powell, OH); host or cells: chemical synthesis
Procedure: (§1) The steady-state fluorescence measurements were performed using a Perkin-Elmer LS55 spectrofluorimeter at 20°C. The titration buffer consisted of 200 mM MOPS, 150 mM KCl, 2 mM EGTA (pH 7.0) ([Tikunova et al., 2002], [2010]; [Tikunova and Davis, 2004]). […] The free Ca^2+ concentration was calculated using the EGCA02 program by [Robertson and Potter (1984)]. The free Mg^2+ concentration was calculated using the MaxChelator program ([Bers et al., 2010]). Each reported Kd represents an average of at least three successive titrations ± standard error and fit with the Hill equation as previously described ([George et al., 1996]).
(§2) The Ca^2+ titrations in the presence of Mg^2+ were performed as described above with the addition of 3 mM Mg^2+ to the titration buffer.

[2] = Steady-state Ca^2+ sensitivity of CaMs in the presence of NADK peptide; format: binding; settings: vs MLCK peptide
Procedure: as §1, §2

| binding of NADK peptide to CaMs in the absence of Ca^2+ ([1]; absence of Ca^2+, data not shown) | affinity of NADK peptide for Ca^2+-saturated CaMs compared to MLCK ([1]; vs MLCK peptide) | Kd ([1]; read-out: NADK peptide affinity (Kd) for Ca^2+-saturated CaM, WT CaM titrated into 1 μM NADK peptide, 100 μM Ca^2+ (pCa = 4), 200 mM MOPS, 150 mM KCl, 2 mM EGTA, pH 7.0, 20°C, mean ± SE of at least three titrations) | Substance | effect at sensitizing the CaMs to Ca^2+ compared to MLCK [2] |
| --- | --- | --- | --- | --- |
| did not bind | weaker affinity |  | IYVHSKEGVWRTSAMVSRWK [NADK peptide] | substantially weaker effect |
|  |  | 760 ± 70 nM | sCaM4: soybean CaM isoform 4; stress-induced CaM found in the soybean |  |
